Experimental findings from patent publication US12599588B2, “Inhibitor for V-ATPase activity, antibacterial agent, medicine, antibacterial method and screening method” (Japan Science and Technology Agency, priority 2019, dated 2026) are described below.

The subject of series [1] is Enterococcus faecalis (vancomycin-resistant enterococci, VRE). The experiment in a line: Growth inhibition of pathogenic bacteria, VRE E. faecalis. In kind it is cell-based. To be noted: pH 7.0, pH 7.5, pH 8.0; OD600. Here is the method:
(§1) As the pathogenic bacteria, Enterococcus faecalis and Enterococcus faecium that are vancomycin-resistant enterococci (VRE), and Clostridium difficile that leads to deterioration of intestinal environment and is resistant to multiple drugs were prepared. The VRE were cultured by using culture media at pH 7.0, pH 7.5, and pH 8.0, the C. difficile was cultured by using culture media at pH 6.5, pH 7.0, and pH 7.5, and the difference in the number of bacteria was confirmed by measuring OD600.
(§2) The data of pH 7.0, pH 7.5, and pH 8.0 are shown in order from the top of FIG. 6. […] The data of pH 6.5, pH 7.0, and pH 7.5 are shown in order from the top of FIG. 7.

The test system of series [2] is enterococci (Enterococcus hirae). As to the kind of experiment: Growth experiment of enterococci (secondary screening), OD600 at pH 7.0 and pH 8.5. In kind it is cell-based. More on the design: Growth inhibition rate (%): concentration or dose not given beside the values. The conditions noted are these: for Specificity: growth inhibition at pH 8.5 versus pH 7.0. On the procedure: In the culture of enterococci (Enterococcus hirae), a culture medium in which the Na^+ concentration had been adjusted by adding a buffer solution using 2% tryptone and 1% yeast extract as the base was used. In a case of adding glucose, glucose prepared in a 50% solution was added so as to be 1% into the culture medium when the culture medium was used. The whole amount 200 μL was cultured using a 96-well plate, and OD600 was measured every hour by using a plate reader. By using culture media at pH 7.0 and pH 8.5, the effect of pH on the growth was observed. In culture of bacteria, the pH often fluctuates largely due to the decomposition of the sugars required for the growth, and it is extremely important to maintain a constant pH in this experiment, and therefore, the pH was maintained constant with the addition of a buffer suitable for each pH. Since the V-ATPase is expressed only under an alkaline condition, the growth inhibition observed with the addition of an inhibitor is largely dependent on the pH.
IC50 and the like of the above 24 kinds of compounds are described in the following table. […] Furthermore, with respect to the symbol “n.a.”, a compound having a growth inhibition rate of 60% or more at pH 7.0 is determined that there was the growth inhibition. In addition, the growth inhibition rate of a compound having no clear inhibition is also recorded for reference.

The test system of series [3] is Enterococcus faecium (vancomycin-resistant enterococci, VRE). As to the kind of experiment: Growth inhibition of pathogenic bacteria, VRE E. faecium. To be noted: pH 7.0, pH 7.5, pH 8.0; OD600. Type of series: cell-based. On the procedure: as §1, §2
A further series has as its system E. faecium of VRE. The experiment in a line: Test in VRE-infected mice, number of live VRE in the intestine. In kind it is in vivo. To be noted: antibiotic-treated mice infected with E. faecium VRE. On the procedure:
Mice treated with antibiotics were infected with E. faecium of VRE, and V-161 was administered to the mice.

For another series, the system named is Clostridium difficile. The experiment in a line: Growth inhibition of pathogenic bacteria, C. difficile. Type of series: cell-based. The conditions noted are these: pH 6.5, pH 7.0, pH 7.5; OD600. Here is the method:
as §1, §2

In series [4] the target is T1, V-ATPase (purified from enterococci or recombinant E. coli) (Enterococcus hirae, UniProt P43439+P43457).
T1 construct: made in house; host or cells: Enterococcus hirae (native) or recombinant E. coli
The experiment in a line: ATPase activity measurement (molybdenum blue method, primary screening). In kind it is biochemical. Here is the method:
The ATPase activity can be measured by a molybdenum blue method for measuring absorbance of the inorganic phosphoric acid generated by hydrolysis of ATP. As the reaction conditions, conditions for measuring the ATPase activity can be adopted. As the buffer solution used in the reaction, Tris-HCl buffer can be used. The reaction time is usually 10 to 60 minutes, but can be appropriately adjusted depending on the air temperature or the like. The reaction of V-ATPase is terminated with the addition of a surfactant such as sodium dodecyl sulfate (SDS), and into which a color-developing liquid (such as ferrous sulfate) is added to give a color, and then the concentration of the inorganic phosphoric acid can be calculated by the measurement of the absorbance at a wavelength of 650 nm.
From the concentration of inorganic phosphoric acid calculated above, the inhibition rate of the V-ATPase reaction can be calculated. That is, a graph is created in which the inhibition rate is plotted on the vertical axis and the concentration of compound is plotted on the horizontal axis, and the concentration (IC50) at which the inhibition rate becomes 50% is determined. As the concentration of compound at which IC50 is obtained becomes lower, a higher V-ATPase inhibitory effect is exerted with a small amount, and accordingly, the compound can be taken as a candidate compound for the inhibitor for V-ATPase activity.
The V-ATPase was prepared by the method disclosed in the following papers. • Paper 1: Takeshi Murata, et. al, “Purification and Reconstitution of Na^+-translocating Vacuolar ATPase from Enterococcus hirae”, J. Biol. Chem. 272, 24885-24890 (1997) • Paper 2: Takeshi Murata, et. al, “Torque Generation of Enterococcus hirae V-ATPase”, J. Biol. Chem. 289, 31212-31223 (2014)
ATPase activity measurement was conducted by a molybdenum blue method that quantifies the inorganic phosphoric acid generated by hydrolysis of ATP with the use of absorbance measurement. The measurement was conducted in a 96-well plate, and 0.05% DDM (n-dodecyl-β-D-maltoside), 10 μg/mL of V-ATPase (purified from enterococci or recombinant E. coli), and 20 μM of a compound were added into a buffer (100 mM Tris-HCl at pH 8.5, 100 mM NaCl, 5 mM MgSO4, 10% glycerol). Into the mixture obtained above, ATP was added so as to be 5 mM, the whole amount was set to 100 μL, the reaction was started while stirring the mixture with a stirrer, and the reaction time was set to 30 minutes. Since the ATPase activity changes largely depending on the reaction temperature, the reaction time was adjusted within the range of 10 to 60 minutes corresponding to the air temperature on the day of the experiment. With the addition of 50 μL of 20% SDS, the V-ATPase was denatured and the reaction was terminated, and into the resultant mixture, 75 μL of color-developing liquid (5% ferrous sulfate, 1.6% ammonium molybdate, and 1 M sulfuric acid) was added to give a color. Immediately, the absorbance at a wavelength of 650 nm was measured by using a plate reader. Four kinds of KH2PO4 aqueous solutions of 0.2 mM, 0.5 mM, 1.0 mM, and 1.5 mM were reacted with MQ (ultrapure water) in the same experiment system, and then the activity of V-ATPase was measured by determining the concentration of generated inorganic phosphoric acid with the use of a created calibration curve. In this regard, a compound that had inhibited 50% or more of the activity of V-ATPase was diluted stepwisely so as to have a concentration of 10 μM, 5 μM, 2 μM, 1 μM, 500 nM, 200 nM, 100 nM, and 50 nM, and the measurement similar to the above was conducted.
From the results of the above measurement of ATPase activity, the inhibition rate was calculated comparing the decrease in the activity by assuming the activity under the condition of no compound addition as 100. A graph was created in which the inhibition rate was plotted on the vertical axis and the concentration of compound was plotted on the horizontal axis (FIG. 2). […]

Series [5] can be described thus: Oral administration to mice (intestinal environment), toxicity observation. Type of series: in vivo. To be noted: 20 mM suspension, 0.5 ml orally once a day, five days. Here is the method: To each of four mice, 0.5 ml of the suspension was orally administered once a day, and on five days after the start of administration, the mice were dissected and the feces and intestinal tract contents were collected, and the intestinal pH and sodium ion concentration were measured.

Structures are written as SMILES. “Also recorded” adds a separate entry of the source.

The term IC50 denotes the midpoint of a concentration-inhibition curve. As for `Cc1ccc2nc(-c3ccc(N(C)C)cc3)[nH]c2c1` [Compound V-161, N,N-dimethyl-4-(6-methyl-1H-benzo[d]imidazol-2-yl)aniline], the “growth of E. faecalis (VRE) (FIG. 6)” value in series [1] is recorded as “inhibited in a pH-dependent manner”. Moreover, the “non-specific inhibition / non-specific bond” value in series [2] was “no non-specific inhibition”. In addition, the “Growth inhibition rate (%)” value in series [2] (Table 2, E. hirae growth, pH not stated (media pH 7.0 and pH 8.5)) is listed as 88.7%; in series [2] (Table 3, 2-phenyl benzimidazole derivatives) it was 88.7%. For the same compound, the Specificity result in series [2] (Table 2) and in series [2] (Table 3) was “+ (there was no growth inhibition at pH 7.0 but was the growth inhibition at pH 8.5)” throughout. Further, the “growth of E. faecium (VRE) (FIG. 6)” value in series [3] was “inhibited in a pH-dependent manner; also recorded: more strongly affected by the V-161 than E. faecalis”. Also, in the series on E. faecium of VRE (cecum, large intestine, feces), the “decrease of VRE in the cecum, large intestine, and feces versus controls (FIG. 10)” value is on record as “around 50%”. Moreover, the “decrease of VRE in the small intestine versus controls (FIG. 10)” value in the series with E. faecium of VRE (small intestine) was 97%. Moreover, the “growth of C. difficile (FIG. 7)” value in the series with Clostridium difficile is recorded as “inhibited even under a neutral or acidic condition”. The IC50 in series [4] (IC50 (nM), Table 2, inhibition of V-ATPase ATPase activity, pH 8.5 buffer) is 85 nM; in series [4] (IC50 (nM), Table 3, 2-phenyl benzimidazole derivatives), 85 nM; in series [4] (high affinity for V-ATPase (IC50), unit inferred) it was no more than 400 nM. In series [5], the toxicity in mice result is “toxicity was not observed”.
